According to patent US20240251785A1, “SMALL MOLECULE ANTAGONISTS AND AGONISTS OF ARTHROPOD KININ RECEPTORS FOR PEST CONTROL” (The Texas A&M University System, priority 2021, published 2024):
Where two headings read alike, the source gives them in different places.

Legend:
[1] = molecular target: T1, recombinant tick kinin receptor (BMLK3) (Rhipicephalus microplus, UniProt Q9NHA4); assay: dual-addition intracellular calcium fluorescence assay, antagonist dose-response (inhibition of Rhimi-K-1 response in BMLK3 cells); type: cell-based; conditions: FIG. 6 SAR analysis; BMLK3 CHO-K1 cells stably expressing R. microplus kinin receptor; agonist Rhimi-K-1 (QFSPWGamide) 1 μmol L^−1
T1 construct: intracellular calcium fluorescence; agonist Rhimi-K-1 (QFSPWGamide)
T1 sequence (Q9NHA4 1-397): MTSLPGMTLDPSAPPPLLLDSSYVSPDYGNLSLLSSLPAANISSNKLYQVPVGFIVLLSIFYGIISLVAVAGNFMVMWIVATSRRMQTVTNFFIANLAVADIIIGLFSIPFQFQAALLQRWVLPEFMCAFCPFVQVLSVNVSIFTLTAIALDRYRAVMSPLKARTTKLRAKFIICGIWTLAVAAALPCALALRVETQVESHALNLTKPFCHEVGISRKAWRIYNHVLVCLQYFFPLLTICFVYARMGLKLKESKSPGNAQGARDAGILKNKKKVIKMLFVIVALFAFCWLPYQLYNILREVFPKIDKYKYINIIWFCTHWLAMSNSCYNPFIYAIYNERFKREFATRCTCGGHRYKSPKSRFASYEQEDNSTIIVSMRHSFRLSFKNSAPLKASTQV

[2] = system: isolated hindguts from females of the mosquito Aedes aegypti; assay: Hindgut contraction inhibition assay; conditions: for hindgut contraction rate, in words: compound 10 μmol L^−1, 1 h after 1728 (data not shown); for effect on hindgut contraction elicited by 1728, in words: compound 100 μmol L^−1, 5 min, then 1728 10 μmol L^−1, 1 h
Protocol: A mosquito colony of Ae. aegypti (Diptera: Culicidae), Liverpool strain, was maintained at 26.5° C. in a 16 h:8 h, light:dark photoperiod and provided with 10% sugar water, as described previously.^31 For the experiment, 3-5-day-old females were used, and the assay was modified based on our previous protocol.^33 A group of six female mosquitoes were cold-anesthetized on a Petri dish placed on ice, where both wings were removed. Mosquitoes became active when the plate was removed from the ice. The dissection dish was filled with Ringer's solution (150 mmol L^−1 NaCl, 25 mmol L^−1 HEPES, 3.4 mmol L^−1 KCl, 7.5 mmol L^−1 NaOH, 1.8 mmol L^−1 NaHCO3. 1 mmol L^−1 MgSO4, 1.7 mmol L^−1 CaCl2 and 5 mmol L^−1 glucose, pH 7.1) at room temperature. To dissect the hindgut of each mosquito, their head and thorax were removed with forceps, and the abdomen was submerged in the Ringer solution. The hindgut, ovaries and Malpighian tubules (MTs), and midgut were taken out by pulling the last segment of the abdomen under the Ringer solution. Then, the ovaries and the majority of the midgut were removed using scissors leaving the intact hindgut and MTs. The isolated tissue was transferred with forceps, gripping on the cuticle of the last segment, into a drop of 30 μL Ringer solution in a 12-well-plate (Greiner Bio-One®, 665,102). After six mosquitoes were dissected as a group, paraffin oil (1-2 mL) was added to each well to cover the saline. The cuticle of the last abdominal segment was drawn out of the Ringer solution into the oil for better observation of the hindgut contraction. The tissues were filmed using an Olympus SZ60 camera (Olympus America Inc., Center Valley, PA, USA) mounted on a dissecting microscope.
First, the hindgut basal contraction rate was recorded by filming each tissue for 60 s. […] After 5 min of incubation at room temperature, 15 μL kinin agonist analog 1728 solution (4×in Ringer solution) was added to the Ringer solution to reach a final concentration of 10 μmol L^−1. After 1 h of incubation, the tissue was filmed again for 60 s.
The contractible hindgut of mosquito consists of a funnel-shaped pylorus located immediately after the posterior midgut, followed by a long, coiled ileum, and a bulbous colon which contains the rectal pads, and a tapering rectal tube at the posterior end.^35 To analyze each video, the hindgut contraction number was counted by observing the contraction occurring at the junction between the pyloric sphincter and the most anterior ileum. The hindgut contraction rate was expressed as the number of contractions observed over 60 s. The fold change in contraction rate was calculated as the contraction rate estimated at 1 h post treatment divided by the basal rate estimated before the treatment with the chemicals. Each treatment was repeated with 30 female mosquitoes independently. All statistical analyses were done by PRISM software (v8, GraphPad). The differences in fold-change of the contraction rates among treatments were analyzed using the nonparametric Kruskal-Wallis test, followed by the Dunn's multiple comparison test. […].

[3] = system: Rhodnius prolixus hindgut; conditions: cited from earlier work
[4] = system: Drosophila melanogaster renal organs; conditions: cited from earlier work
[5] = molecular target: recombinant tick kinin receptor (BMLK3) (Rhipicephalus microplus, UniProt Q9NHA4); assay: Dose-response dual-addition calcium fluorescence assay on BMLK3 cells; type: cell-based; conditions: for EC50: read-out: BMLK3 EC50
[6] = system: vector-only (V/O) CHO-K1 cells; assay: Dose-response dual-addition calcium fluorescence assay on vector-only cells; type: cell-based
[7] = system: Human dermal fibroblasts (HDF) cells; assay: Cytotoxicity assay (resazurin); type: cell-based; conditions: Human dermal fibroblasts cells; tested at 20 μcool L^−1
[8] = system: Aedes aegypti kinin receptor; assay: Calcium fluorescence assay on recombinant mosquito kinin receptor (IGKN G12 cell line); type: cell-based; conditions: for calcium response, in words: 100 μmol L^−1
Protocol: Three identified potent small molecule antagonists, and as control, a small molecule of very low antagonistic activity, all identified as part of this study, were tested in the calcium fluorescence assay, as above, for their activity on the cell line expressing the Aedes aegypti kinin receptor (IGKN G12 cell line). Receptor cloning, expression and clonal cell selection were as described previously.^3′ The recombinant tick kinin receptor (BMLK3) was tested simultaneously as positive control for the assay. BMLK3 and IGKN G12 cells were seeded in 96-well-plates (Greiner Bio-One®, B/C 655097) at a density of […] cells in 100 μL maintenance medium. Cells were prepared as described above for the calcium fluorescence assay; and each well was added with 90 μL assay buffer (see Section 2.3, HHBS plus dye efflux inhibitor).
For each compound three 10× concentrations (100, 300, 1000 μmol L^−1) were prepared and 10 μL of each was added manually into one well of each cell line for a final concentration of 10, 30 and 100 […]. After 5 min incubation at room temperature, a kinin receptor agonist peptide, the kinin agonist analog 1728^28 [[Aib]FF[Aib]WGamide, RoyoBiotech, Shanghai, China] was added manually (50 μL; 3× stock in HHBS) into each well for a final concentration of 1 μmol L^−1. The cellular calcium response in RFU was immediately recorded continuously for 60 s with 3 s intervals between reads using a Clariostar plate reader. The average RFU of these 20 reads represented the raw response to each treatment. Three independent replicates were run for each concentration and compound. The percentage of signal reduction with respect to the control that contained solvent and the kinin agonist analog 1728 was calculated using the average RFU registered for the treatment with each small molecule divided by the average RFU recorded for the control (100%). Data analyses were performed with the percentage reduction of the three independent replicates. PRISM (Graphpad, San Diego. CA, USA) was utilized for analysis and graphics.

[9] = Table 5 analogs, V/O cells, read-out: V/O antagonist IC50
[10] = summary of 36 validated antagonist hits, vector-only cell (V/O)
[11] = Table 5 analogs, first addition
[12] = Table 5 analogs, second addition Rhimi-K-1 1 μmol L^−1, read-out: BMLK3 antagonist IC50
[13] = summary of 36 validated antagonist hits, BMLK3 cells
[14] = summary of 36 validated antagonist hits, BMLK3 cells, read-out: BMLK3 IC50

Compound: C1C1═CC═C(\C═C2\SC(═O)N(NS(═O)(═O)C3═CC═CC═C3)C2═S)C═C1 [SACC-0064443]
- IC50 [1]: 660 nM

Compound: [Aib]FF[Aib]WGamide [Molecule 1728]
- increase of contraction rate, solvent plus 1728 group ([2]; 1728 10 μmol L^−1, solvent control of SACC-0412062 test (FIG. 8B), 1 h): two-fold
- concentration inducing hindgut contraction [3]: 10^−16 M
- increase of fluid secretion from renal organs, in words ([4]; 10^−7 M range): not active
- concentration active in diuretic assays [4]: 25 µM

Compound: CCOc1cc(C=C2SC(=S)N(NS(=O)(=O)c3ccc(C)cc3)C2=O)ccc1O [SACC-0412066]
- Inhibitory Efficacy at 12 μM ([5]; BMLK3 cells): 79.17%
- EC50 ([6]; Table 5 analogs, V/O cells): > 25000 nM
- IC50 [6, 9]: 1040 nM
- EC50 [6, 10]: > 25000 nM
- IC50 [6, 10]: 1040 nM
- HDF average % growth inhibition [7]: 2.02%
- inhibition of response compared to control ([8]; 30 μmol L^−1, 1728 1 μmol L^−1): 84%
- calcium response, in words [8]: elicited a strong calcium response
- hindgut contraction rate, in words [2]: no increase in the hindgut contraction rate was observed
- effect on hindgut contraction elicited by 1728, in words [2]: inhibited the increased rate of muscle contraction
- effect on hindgut contraction elicited by 1728, in words ([2]; listed as -10412066): significantly reduced the mobility of the hindgut
- effect on hindgut contraction elicited by 1728, in words ([2]; listed as SACC-0412006): did not observe any increase in the hindgut contraction rate

Compound: O=C1C(=Cc2ccccc2)SC(=S)N1NS(=O)(=O)c1ccccc1 [SACC-0412060]
- Inhibitory Efficacy at 12 μM ([5]; BMLK3 cells): 91.75%
- EC50 [5, 11]: 9570 nM
- IC50 [5, 12]: 1890 nM
- EC50 [5, 13]: 9570 nM
- IC50 [5, 14]: 1890 nM
- EC50 ([6]; Table 5 analogs, V/O cells): 9270 nM
- IC50 [6, 9]: 538 nM
- EC50 [6, 10]: 9270 nM
- IC50 [6, 10]: 538 nM
- HDF average % growth inhibition [7]: 6.873%
- hindgut contraction rate, in words [2]: no increase in the hindgut contraction rate was observed
- effect on hindgut contraction elicited by 1728, in words [2]: inhibited the increased rate of muscle contraction
- effect on hindgut contraction elicited by 1728, in words ([2]; listed as SACC-0412000): significantly reduced the mobility of the hindgut

Compound: Cc1ccc(S(=O)(=O)NN2C(=O)C(=Cc3ccc(C(=O)O)cc3)SC2=S)cc1 [SACC-0412064]
- Inhibitory Efficacy at 12 μM ([5]; BMLK3 cells): 0.31%
- activity type in dose-response assay, in words ([5]; BMLK3 cells, Rhimi-K-1 1 μmol L^−1): very weak partial antagonists
- EC50 [5, 11]: 13000 nM
- IC50 [5, 12]: 118 nM
- EC50 [5, 13]: 13000 nM
- IC50 [5, 14]: 118 nM
- EC50 ([6]; Table 5 analogs, V/O cells): 17400 nM
- IC50 [6, 9]: 1470 nM
- EC50 [6, 10]: 17400 nM
- IC50 [6, 10]: 1470 nM
- HDF average % growth inhibition [7]: −7.067%
- calcium response, in words [8]: did not antagonize the calcium response
- effect on hindgut contraction elicited by 1728, in words [2]: did not differ
